The source of these data is patent publication US20090105301A1, “9A-SUBSTITUTED AZALIDES FOR THE TREATMENT OF MALARIA” (priority 2006, published 2009).

What all share (format): cell-based, Plasmodium falciparum
Test [1] concerns P. falciparum W2 (CDC/Indochina III, W-2). The test is described as follows: In vitro screening protocol I, [3H]-hypoxanthine incorporation, W2. The conditions noted are these: for IC50: Plasmodium falciparum. The source says: (§1) Agents Chemother. 27 (4) (1985) 525-530). The system was limited to the assessment of the intrinsic activity against the erythrocytic asexual life cycle (blood schizontocides). Two Plasmodium falciparum clones from CDC/Indochina III (W-2) and CDC/Sierra Leone I (D-6) (Oduola A M, Weatherly N F, Bowdre J H, Desjardins R E. Plasmodium falciparum: cloning by single-erythrocyte micromanipulation and heterogeneity in vitro. Exp Parasitol. 66 (1) (1988) 86-95) were used for all assays. TM91C235, a multiple drug resistant isolate from Thailand (Antimicrob. Agents Chemother. 46 (8) (2002) 2627 and Antimicrob. Agents Chemother. 43 (3) (1999) 598-602), was used for the prescreening assay. W-2 is resistant to chloroquine, quinine, and pyrimethamine and susceptible to mefloquine. D-6 tends to be more resistant to mefloquine and susceptible to chloroquine, quinine, and pyrimethamine. All documents cited in this paragraph are incorporated by reference in their entirety.
(§2) All parasites were maintained in continuous long term cultures in RPMI-1640 medium supplemented with 6% washed human A positive (A+)(erythrocytes, 25 mM Hepes, […], and 10% heat inactivated A+ human plasma or ALBUMAX® (lipid-rich bovine serum albumin; Invitrogen, Carlsbad, Calif.). All cultures and assays were conducted at 37° C. under an atmosphere of 5% CO2 and 5% O2, with a balance of N2.
(§3) The prescreening assay uses TM91C235 diluted at a 0.4% parasitemia in a 1% hematocrit in folic acid free and p-aminobenzoic acid free media RPMI-1640 and ALBUMAX®. […] The compound is further diluted in folate free (FF) culture medium with ALBUMAX® for the first initial starting concentration. The rest of the stock drug solution was kept at −70° C. The isolate was preexposed, in duplicate, at three concentrations (25,000 ng/ml, 2,500 ng/ml, and […]) of the test compound for 48 hr in a 96-well microtiter plate (MTP) using the BIOMEK® 2000 automated laboratory workstation. Each MTP contains chloroquine as control to assess the relative activity of the compound and to monitor the response of TM91C235.
(§4) After the preincubation, [^3H]-hypoxanthine was added to each well of the MTP. (The assay relies on the incorporation of radiolabeled hypoxanthine by the parasites, which indicates reproduction, and inhibition of isotope incorporation was attributed to activity of known or candidate antimalarial drugs). After 72 hours of total incubation time, the MTP were frozen to lyse the erythrocytes and parasites. The parasite DNA was recovered by harvesting the lysate onto glass-fiber filter plates using a Packard FilterMate™ Cell Harvester. The radioactivity was counted on a Packard TopCount™ microplate scintillation counter.
(§5) The serial dilution assay was conducted using the same assay conditions and stock solution of the compound used for the preliminary screen, described above. Both the D-6 and the W-2 clones were used. The compounds were diluted two-fold over 11 different concentration ranges with a starting concentration that was based on the preliminary screen. For each drug, the concentration response profile was determined and 50% inhibitory concentrations (IC50) were determined by using a non-linear, logistic dose response analysis program. […] For each assay, the IC50 for each clone was determined against the known antimalarials chloroquine and mefloquine. These control values established the compound's relative parasite susceptibility profile compared to known antimalarials. […]

For test [2], the system named is P. falciparum D6 (CDC/Sierra Leone I, D-6). The test can be described thus: In vitro screening protocol I, [3H]-hypoxanthine incorporation, D6. The settings on record: for IC50: Plasmodium falciparum.
Excerpt: as §1, §2, §3, §4, §5

For the next test, the system named is P. falciparum TM91C235. The test can be described thus: In vitro screening protocol I, [3H]-hypoxanthine incorporation, TM91C235. The conditions noted are these: for IC50: Plasmodium falciparum, read-out: IC50 TM91C235.
Excerpt: as §1, §2, §3, §4, §5

The mark [3] stands for this setting: In vitro screening protocol I, P. falciparum W2, read-out: IC50 W2.
Setting [4] is: In vitro screening protocol I, P. falciparum D6, read-out: IC50 D6.
[5] abbreviates: In vitro screening protocol I, P. falciparum TM91C235.

In brackets after ≈: the same amount, converted by molar mass. Structures can show the parent of a compound that is named as a salt. Where two headings read alike, the source gives them in different places. A value given as a limit tells only on which side of the number the result lay.

In the case of `CC[C@H]1OC(=O)[C@H](C)[C@@H](O[C@H]2C[C@@](C)(OC)[C@@H](O)[C@H](C)O2)[C@H](C)[C@@H](O[C@@H]2O[C@H](C)C[C@H](N(C)C)[C@H]2O)[C@](C)(O)C[C@@H](C)CN(CCCNC(=O)Cc2ccc3ccccc3c2)[C@H](C)[C@@H](O)[C@]1(C)O` [Example 33, 9a-{3-[(Naphtalen-2-yl-acetyl)amino]propyl}-9a-aza-9-deoxo-9-dihydro-9a-homoerythromycin A Formiate Salt], the figures for the IC50 (in test [1] (setting [3]); in test [2] (setting [4]); with P. falciparum TM91C235 (setting [5])) were 0.2 to 1 µg/mL, 0.1 to 0.2 µg/mL and less than 0.1 µg/mL, respectively.

Consider `CC[C@H]1OC(=O)[C@H](C)[C@@H](O)[C@H](C)[C@@H](O)[C@](C)(O)C[C@@H](C)CN(CCCNCc2ccc3ccccc3n2)[C@H](C)[C@@H](O)[C@]1(C)O` [Example 3, 9a-{3-[(Quinolin-2-yl-methyl)amino]propyl}-3-O-decladinosyl-5-O-dedesosaminyl-9-deoxo-9-dihydro-9a-aza-9a-homoerythromycin A], for which the results for the IC50 (in test [1] (setting [3]); in test [2] (setting [4]); in the test on P. falciparum TM91C235 (setting [5])) were 0.2 to 1 µg/mL (≈ 0.324 to 1.62 µM), 3.5 to 5 µg/mL (≈ 5.67 to 8.09 µM) and 1 to 2.5 µg/mL (≈ 1.62 to 4.05 µM), respectively.

As for `CC[C@H]1OC(=O)[C@H](C)[C@@H](O)[C@H](C)[C@@H](O[C@@H]2O[C@H](C)C[C@H](N(C)C)[C@H]2O)[C@](C)(O)C[C@@H](C)CN(CCCNC(=O)Cc2cccc3ccccc23)[C@H](C)[C@@H](O)[C@]1(C)O` [Example 36, 9a-{3-[(Naphtalen-1-yl-acetyl)amino]propyl}-3-O-decladinosyl-9a-aza-9-deoxo-9-dihydro-9a-homoerythromycin A Formiate Salt], the IC50 (in test [1] (setting [3]); in test [2] (setting [4]); with P. falciparum TM91C235 (setting [5])) was 1 to 2.5 µg/mL throughout.

In the case of `CC[C@H]1OC(=O)[C@H](C)[C@@H](O)[C@H](C)[C@@H](O[C@@H]2O[C@H](C)C[C@H](N(C)C)[C@H]2O)[C@](C)(O)C[C@@H](C)CN(CCCNCc2cnc3ccccc3c2)[C@H](C)[C@@H](O)[C@]1(C)O` [Example 5, 9a-{3-[(Quinolin-3-yl-methyl)amino]propyl}-3-O-decladinosyl-9-deoxo-9-dihydro-9a-aza-9a-homoerythromycin A], the results for the IC50 (in test [1] (setting [3]); in test [2] (setting [4]); in the test with P. falciparum TM91C235 (setting [5])) were 0.1 to 0.2 µg/mL (≈ 0.129 to 0.258 µM), 0.2 to 1 µg/mL (≈ 0.258 to 1.29 µM) and 0.1 to 0.2 µg/mL (≈ 0.129 to 0.258 µM), respectively.

Turning to `CC[C@H]1OC(=O)[C@H](C)[C@@H](O[C@H]2C[C@@](C)(OC)[C@@H](O)[C@H](C)O2)[C@H](C)[C@@H](O[C@@H]2O[C@H](C)C[C@H](N(C)C)[C@H]2O)[C@](C)(O)C[C@@H](C)CN(CCCNCCCc2ccccc2)[C@H](C)[C@@H](O)[C@]1(C)O` [Example 19, 9a-{3-[(3-Phenylpropyl)amino]propyl}-9-deoxo-9-dihydro-9a-aza-9a-homoerythromycin A], the 50% inhibitory concentration (IC50) in test [1] (setting [3]) was less than 0.1 µg/mL; in test [2] (setting [4]), 0.1 to 0.2 µg/mL (≈ 0.11 to 0.22 µM); with P. falciparum TM91C235 (setting [5]), less than 0.1 µg/mL.

Regarding `CC[C@H]1OC(=O)[C@H](C)[C@@H](O[C@H]2C[C@@](C)(OC)[C@@H](O)[C@H](C)O2)[C@H](C)[C@@H](O[C@@H]2O[C@H](C)C[C@H](N(C)C)[C@H]2O)[C@](C)(O)C[C@@H](C)CN(CCCNCc2ccccc2)[C@H](C)[C@@H](O)[C@]1(C)O` [Example 52, 9a-{3-[(Phenylmethyl)amino]propyl}-9-deoxo-9-dihydro-9a-aza-9a-homoerythromycin A], the IC50 in test [1] (W2, read-out: IC50 W2) was less than 0.1 µg/mL; in test [2] (D6, read-out: IC50 D6), 0.2 to 1 µg/mL (≈ 0.227 to 1.13 µM); in the test with P. falciparum TM91C235, less than 0.1 µg/mL.

For the compound `CC[C@H]1OC(=O)[C@H](C)[C@@H](O[C@H]2C[C@@](C)(OC)[C@@H](O)[C@H](C)O2)[C@H](C)[C@@H](O[C@@H]2O[C@H](C)C[C@H](N(C)C)[C@H]2O)[C@](C)(O)C[C@@H](C)CN(CCCNCc2ccc3ccccc3n2)[C@H](C)[C@@H](O)[C@]1(C)O` [Example 1, 9a-{3-[(Quinolin-2-yl-methyl)amino]propyl}-9-deoxo-9-dihydro-9a-aza-9a-homoerythromycin A], the IC50 in test [1] (setting [3]) is less than 0.1 µg/mL; in test [2] (setting [4]), 0.1 to 0.2 µg/mL (≈ 0.107 to 0.214 µM); in the test on P. falciparum TM91C235 (setting [5]) it was less than 0.1 µg/mL.

With `CC[C@H]1OC(=O)[C@H](C)[C@@H](O)[C@H](C)[C@@H](O[C@@H]2O[C@H](C)C[C@H](N(C)C)[C@H]2O)[C@](C)(O)C[C@@H](C)CN(CCCNCc2ccc3ccccc3n2)[C@H](C)[C@@H](O)[C@]1(C)O` [Example 2, 9a-{3-[(Quinolin-2-yl-methyl)amino]propyl}-3-O-decladinosyl-9-deoxo-9-dihydro-9a-aza-9a-homoerythromycin A], the results for the IC50 (in test [1] (setting [3]); in test [2] (setting [4]); in the test with P. falciparum TM91C235 (setting [5])) were 0.1 to 0.2 µg/mL (≈ 0.129 to 0.258 µM), 0.2 to 1 µg/mL (≈ 0.258 to 1.29 µM) and 0.1 to 0.2 µg/mL (≈ 0.129 to 0.258 µM), respectively.

With `CC[C@H]1OC(=O)[C@H](C)[C@@H](O[C@H]2C[C@@](C)(OC)[C@@H](O)[C@H](C)O2)[C@H](C)[C@@H](O[C@@H]2O[C@H](C)C[C@H](N(C)C)[C@H]2O)[C@](C)(O)C[C@@H](C)CN(CCC(=O)NCc2ccccc2)[C@H](C)[C@@H](O)[C@]1(C)O` [Example 38], the IC50 (in test [1] (setting [3]); in test [2] (setting [4]); with P. falciparum TM91C235 (setting [5])) was 0.2 to 1 µg/mL (≈ 0.223 to 1.12 µM) throughout.

For the compound `CC[C@H]1OC(=O)[C@H](C)[C@@H](O[C@H]2C[C@@](C)(OC)[C@@H](O)[C@H](C)O2)[C@H](C)[C@@H](O[C@@H]2O[C@H](C)C[C@H](N(C)C)[C@H]2O)[C@](C)(O)C[C@@H](C)CN(CCCNC(=O)c2ocnc2C)[C@H](C)[C@@H](O)[C@]1(C)O` [Example 34, 9a-(3-{[(4-Methyl-1,3-oxazol-5-yl)carbonyl]amino}propyl)-9a-aza-9-deoxo-9-dihydro-9a-homoerythromycin A Formiate Salt], the IC50 in test [1] (setting [3]) lay within 1 to 2.5 µg/mL; in test [2] (setting [4]), 2.5 to 2.8 µg/mL; in the test with P. falciparum TM91C235 (setting [5]), 0.2 to 1 µg/mL.

On to `CC[C@H]1OC(=O)[C@H](C)[C@@H](O)[C@H](C)[C@@H](O[C@@H]2O[C@H](C)C[C@H](N(C)C)[C@H]2O)[C@](C)(O)C[C@@H](C)CN(CCCNCc2cccc3ccccc23)[C@H](C)[C@@H](O)[C@]1(C)O` [Example 9, 9a-{3-[(Naphtalen-1-yl-methyl)amino]propyl}-3-O-decladinosyl-9-deoxo-9-dihydro-9a-aza-9a-homoerythromycin A], for which, in test [1] (In vitro screening protocol I, P. falciparum W2), the “IC50 W2” value was “A (X ≦ 100)”. For the same compound, the “IC50 D6” value in test [2] (In vitro screening protocol I, P. falciparum D6) is recorded as “A (X ≦ 100)”. The “IC50 TM91C235” value with P. falciparum TM91C235 (setting [5]) is “A (X ≦ 100)”.

With `CC[C@H]1OC(=O)[C@H](C)[C@@H](O[C@H]2C[C@@](C)(OC)[C@@H](O)[C@H](C)O2)[C@H](C)[C@@H](O[C@@H]2O[C@H](C)C[C@H](N(C)C)[C@H]2O)[C@](C)(O)C[C@@H](C)CN(CCCN(C)Cc2cccc3ccccc23)[C@H](C)[C@@H](O)[C@]1(C)O` [Example 17, 9a-{3-[Methyl-(naphtalen-1-yl-methyl)amino]propyl}-9-deoxo-9-dihydro-9a-aza-9a-homoerythromycin A], the IC50 in test [1] (setting [3]) is less than 0.1 µg/mL; in test [2] (setting [4]), 0.1 to 0.2 µg/mL (≈ 0.106 to 0.211 µM); with P. falciparum TM91C235 (setting [5]) it was less than 0.1 µg/mL.

Regarding `CC[C@H]1OC(=O)[C@H](C)[C@@H](O[C@H]2C[C@@](C)(OC)[C@@H](O)[C@H](C)O2)[C@H](C)[C@@H](O[C@@H]2O[C@H](C)C[C@H](N(C)C)[C@H]2O)[C@](C)(O)C[C@@H](C)CN(CCCNc2ccnc3ccccc23)[C@H](C)[C@@H](O)[C@]1(C)O` [Example 22, 9a-[3-(Quinolin-4-yl-amino)propyl]-9-deoxo-9-dihydro-9a-aza-9a-homoerythromycin A], the IC50 (in test [1] (setting [3]); in test [2] (setting [4]); in the test with P. falciparum TM91C235 (setting [5])) was less than 0.1 µg/mL each time.

In general, IC50 refers to the concentration needed to halve the response being measured.
